Data: patent US7749729B2, “Methods for assessing the risk for development of cardiovascular disease” (University of Washington, priority 2004, dated 2010)

Assays:
myeloperoxidase = target: T1, myeloperoxidase (Homo sapiens, UniProt P05164); assay: Nitration of HDL by the myeloperoxidase-H2O2-NO2- system (3-nitrotyrosine formation, absorbance at 430 nm); type: biochemical; details: 250 μM H2O2, 500 μM NO2-
T1 construct: from tissue; host or cells: human neutrophils
Protocol: FIG. 1 describes nitration of HDL by the myeloperoxidase-H2O2-nitrite system. (A,C) HDL (1 mg/ml protein) was incubated for 60 min or the indicated time at 37° C. in phosphate buffer (20 mM sodium phosphate, pH 7.4, 100 μM DTPA) supplemented with 50 nM myeloperoxidase, 250 μM H2O2 and 500 μM NO2^−. Where indicated, the concentrations of (B) NO2^− were varied. 3-Nitrotyrosine formation was monitored spectroscopically following alkalinization of the reaction mixture.
FIG. 2 describes the effect of Cl^− or taurine on HDL nitration by the myeloperoxidase-H2O2—NO2^− system or HOCl—NO2^−. HDL was exposed for 60 min at 37° C. to myeloperoxidase in phosphate buffer supplemented with 250 μM H2O2, 500 μM NO2^− and (A) the indicated concentration of Cl^− or (B) the indicated concentration of taurine and 100 mM Cl^−. […]
HDL oxidation in vitro. […] Concentrations of HOCl and H2O2 were determined spectrophotometrically (ε292=350 M^−1 cm^−1 ε240=39.4 M^−1 cm^−1) (48,49). 3-Nitrotyrosine formation in a 300 μL aliquot of the reaction mixture was determined in a microplate reader by monitoring absorbance at 430 nm following the addition of NaOH to adjust the pH>9.
Myeloperoxidase generates 3-nitrotyrosine in HDL protein under physiologically relevant in vitro conditions. […] We monitored the formation of 3-nitrotyrosine spectroscopically by quantifying absorbance of the alkalinized reaction mixture at 430 nm.

[1] = system: mock-transfected BHK cells (low ABCA1); assay: Cholesterol efflux from [3H]cholesterol-labeled mock-transfected BHK cells; type: cell-based, hamster; details: 2 to 4 h incubation
Protocol: (§1) FIG. 11 describes cholesterol efflux activities of native and HOCl-oxidized HDL, apo A-I, and peptide 18A. [^3H]Cholesterol-labeled mock-(A, C) or ABCA1-transfected (A-C) BHK cells were incubated for 4 h with native (Ctrl), H2O2-oxidized, or HOCl-oxidized HDL (20 µg/mL) or apo A-I (5 µg/mL) (A), for 2 h with 5 µg/mL apo A-I oxidized with the indicated mole ratio of HOCl (B), or for 2 h with control (−) or HOCl-oxidized (+) peptide Ac-18A-NH2 (20 µg/mL) (C). At the end of the incubation, [^3H]cholesterol efflux to the acceptor particle was measured. *P<0.01 compared with controls.
Cell Culture and Cholesterol Efflux. Baby hamster kidney (BHK) cells expressing mifepristone-inducible human ABCA1 were generated as previously described (35). Cellular cholesterol was labeled by adding 1 μCi/mL [^31H]cholesterol (NEN Life Science Products) to the growth medium. Twenty four hours later, strong expression of ABCA1 was induced by incubating the cells for 20 h with DMEM containing 1 mg/mL bovine serum albumin (DMEM/BSA) and 1 nM mifepristone (Vaughan et al., 2003. J Lipid Res 44:1373-1380). […] Cholesterol efflux mediated by HDL, apo A-I, or peptide was calculated as the percentage of total [^31H]cholesterol (medium plus cell) released into the medium after subtracting the value obtained with DMEM/BSA alone. […]

[2] = system: ABCA1-transfected BHK cells; assay: Cholesterol efflux from [3H]cholesterol-labeled ABCA1-transfected BHK cells; type: cell-based, hamster; details: for effect of oxidation of the acceptor on cholesterol efflux, compared with native acceptor: ABCA1-transfected BHK cells, acceptor oxidized with HOCl or H2O2
Protocol: as §1
Cell Culture and Cholesterol Efflux. Baby hamster kidney (BHK) cells expressing mifepristone-inducible human ABCA1 were generated as previously described (35). Cellular cholesterol was labeled by adding 1 μCi/mL [^31H]cholesterol (NEN Life Science Products) to the growth medium. Twenty four hours later, strong expression of ABCA1 was induced by incubating the cells for 20 h with DMEM containing 1 mg/mL bovine serum albumin (DMEM/BSA) and 1 nM mifepristone (Vaughan et al., 2003. J Lipid Res 44:1373-1380). To measure cholesterol efflux, mock- or ABCA1-transfected cells were incubated with DMEM/BSA without or with HDL, apo A-I, or peptide. After 2 to 4 h, the medium and cells were assayed for [^3H]cholesterol as described (Id.). Cholesterol efflux mediated by HDL, apo A-I, or peptide was calculated as the percentage of total [^31H]cholesterol (medium plus cell) released into the medium after subtracting the value obtained with DMEM/BSA alone.
We exposed HDL or purified apo A-I to HOCl or H2O2 (80:1 or 25:1, mol/mol, oxidant:HDL particle or oxidant:apo A-I) in a physiological buffer (138 mM NaCl, 2.7 mM KCl, 10 mM sodium phosphate) at neutral pH for 120 min at 37° C., terminating the reaction with a 20-fold molar excess (relative to oxidant) of methionine. […]

T1 sequence (P05164 279-745 limits assumed): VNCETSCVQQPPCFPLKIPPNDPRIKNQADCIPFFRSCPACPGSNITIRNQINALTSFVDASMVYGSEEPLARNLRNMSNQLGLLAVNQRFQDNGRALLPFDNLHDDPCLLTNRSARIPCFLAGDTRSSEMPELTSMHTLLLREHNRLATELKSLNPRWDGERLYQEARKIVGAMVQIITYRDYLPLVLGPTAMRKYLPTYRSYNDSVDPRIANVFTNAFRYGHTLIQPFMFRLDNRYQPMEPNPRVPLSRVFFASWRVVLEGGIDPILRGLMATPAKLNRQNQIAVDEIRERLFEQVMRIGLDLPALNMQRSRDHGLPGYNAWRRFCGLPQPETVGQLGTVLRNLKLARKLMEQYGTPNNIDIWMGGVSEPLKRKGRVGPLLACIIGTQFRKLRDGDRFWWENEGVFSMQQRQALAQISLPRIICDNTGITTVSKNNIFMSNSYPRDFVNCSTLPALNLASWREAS
T1 sequence (P05164 165-273 limits assumed): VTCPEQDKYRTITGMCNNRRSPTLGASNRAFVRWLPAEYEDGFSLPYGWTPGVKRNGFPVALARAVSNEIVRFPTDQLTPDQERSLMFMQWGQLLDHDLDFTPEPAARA

| Compound | cholesterol efflux to the acceptor [1] | effect of oxidation of the acceptor on cholesterol efflux, compared with native acceptor [2] | further results |
| --- | --- | --- | --- |
| NCCS(=O)(=O)O [Taurine, 2-aminoethanesulfonic acid] | – | – | effect on HDL nitration (3-nitrotyrosine formation) in the presence of Cl- (myeloperoxidase; myeloperoxidase, 100 mM Cl-, 60 min, 37° C.): no effect |
| Acetyl-18A-NH2 | promoted cholesterol efflux | – | – |
| H2O2-oxidized apo A-I: purified apo A-I exposed to H2O2 (25:1 mol/mol oxidant:apo A-I) | – | no effect | – |
| HOCl-oxidized apo A-I: purified apo A-I exposed to HOCl (25:1 mol/mol oxidant:apo A-I) | – | significant decrease | – |
| apo A-I: purified apolipoprotein A-I, HDL's major protein | essentially no cholesterol efflux activity | – | cholesterol efflux to the acceptor ([2]; ABCA1-transfected BHK cells (ABCA1 overexpressed), 2 to 4 h incubation): became active |
| catalase | – | – | effect on HDL nitration (3-nitrotyrosine formation) (myeloperoxidase; 1 mg/ml HDL, 50 nM myeloperoxidase, pH 7.4, 37° C., catalase 200 nM, sodium azide 10 mM): inhibited |
